Data: the kinase profiling compilation of Christmann-Franck et al. (2016)

Assays:
Assay in all cases: radiometric filter-binding kinase assay, Kinase HotSpot
Conditions in all cases: compound 0.5 µM; ATP 10 µM
IKBKE (human) = IKBKE (human) (UniProt Q14164)
EPHA8 (human) = EPHA8 (human) (UniProt P29322)
PNCK (human) = PNCK (human) (UniProt Q6P2M8)
CSNK1E (human) = CSNK1E (human) (UniProt P49674)
CSNK1G2 (human) = CSNK1G2 (human) (UniProt P78368)
MST4 (human) = MST4 (human) (UniProt Q9P289)
MAP4K5 (human) = MAP4K5 (human) (UniProt Q9Y4K4)
PDGFRA (human) = PDGFRA (human) (UniProt P16234)
CDC42BPA (human) = CDC42BPA (human) (UniProt Q5VT25)
ADRBK2 (human) = ADRBK2 (human) (UniProt P35626)
DYRK3 (human) = DYRK3 (human) (UniProt O43781)
MAP3K8 (human) = MAP3K8 (human) (UniProt P41279)
PRKD1 (human) = PRKD1 (human) (UniProt Q15139)
PRKCB1 (human) = PRKCB1 (human) (UniProt P05771)
CSF1R (human) = CSF1R (human) (UniProt P07333)
NEK3 (human) = NEK3 (human) (UniProt P51956)
EPHB2 (human) = EPHB2 (human) (UniProt P29323)
MUSK (human) = MUSK (human) (UniProt O15146)
PRKCE (human) = PRKCE (human) (UniProt Q02156)
ULK1 (human) = ULK1 (human) (UniProt O75385)
PTK2 (human) = PTK2 (human) (UniProt Q05397)
PAK6 (human) = PAK6 (human) (UniProt Q9NQU5)
INSRR (human) = INSRR (human) (UniProt P14616)
PLK1 (human) = PLK1 (human) (UniProt P53350)
MYLK2 (human) = MYLK2 (human) (UniProt Q9H1R3)
INSR (human) = INSR (human) (UniProt P06213)
NEK1 (human) = NEK1 (human) (UniProt Q96PY6)
AKT1 (human) = AKT1 (human) (UniProt P31749)
MAPKAPK3 (human) = MAPKAPK3 (human) (UniProt Q16644)
SGK2 (human) = SGK2 (human) (UniProt Q9HBY8)
FLT3 (human) = FLT3 (human) (UniProt P36888)
KIT (human) = KIT (human) (UniProt P10721)
EPHA5 (human) = EPHA5 (human) (UniProt P54756)
TEC (human) = TEC (human) (UniProt P42680)
STK25 (human) = STK25 (human) (UniProt O00506)
ROCK2 (human) = ROCK2 (human) (UniProt O75116)
PRKCB2 (human) = PRKCB2 (human) (UniProt P05771)
FER (human) = FER (human) (UniProt P16591)
ROS1 (human) = ROS1 (human) (UniProt P08922)
CDK5 CDK5R1 p25 (human) = CDK5 CDK5R1 p25 (human) (UniProt Q00535+Q15078)
MAP3K2 (human) = MAP3K2 (human) (UniProt Q9Y2U5)
GRK5 (human) = GRK5 (human) (UniProt P34947)

Sequence of AKT1 (human) (P31749 whole entry, looked up): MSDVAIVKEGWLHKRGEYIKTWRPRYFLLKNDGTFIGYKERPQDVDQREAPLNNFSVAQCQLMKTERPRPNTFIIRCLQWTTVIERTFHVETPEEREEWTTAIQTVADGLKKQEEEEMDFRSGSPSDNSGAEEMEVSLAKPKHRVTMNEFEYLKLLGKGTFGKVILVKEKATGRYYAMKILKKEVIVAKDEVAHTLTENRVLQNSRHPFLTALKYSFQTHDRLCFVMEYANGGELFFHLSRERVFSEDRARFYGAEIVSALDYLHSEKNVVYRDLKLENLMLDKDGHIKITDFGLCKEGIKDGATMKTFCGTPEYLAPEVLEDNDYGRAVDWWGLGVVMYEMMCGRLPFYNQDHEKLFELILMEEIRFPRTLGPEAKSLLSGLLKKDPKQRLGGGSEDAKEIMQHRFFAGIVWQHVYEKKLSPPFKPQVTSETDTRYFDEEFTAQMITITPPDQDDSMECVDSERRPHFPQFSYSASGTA
Sequence of SGK2 (human) (Q9HBY8 whole entry, looked up): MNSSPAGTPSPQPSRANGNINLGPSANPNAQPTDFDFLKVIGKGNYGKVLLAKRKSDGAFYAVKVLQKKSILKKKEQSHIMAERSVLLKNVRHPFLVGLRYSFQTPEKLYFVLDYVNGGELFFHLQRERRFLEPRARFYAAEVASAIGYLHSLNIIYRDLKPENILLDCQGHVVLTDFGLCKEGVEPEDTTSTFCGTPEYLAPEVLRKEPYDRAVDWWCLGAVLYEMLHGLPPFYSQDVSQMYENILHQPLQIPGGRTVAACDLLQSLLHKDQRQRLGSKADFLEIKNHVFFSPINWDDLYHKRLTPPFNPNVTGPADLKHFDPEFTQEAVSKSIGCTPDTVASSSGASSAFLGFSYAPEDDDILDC
Sequence of MAP3K2 (human) (Q9Y2U5 whole entry, looked up): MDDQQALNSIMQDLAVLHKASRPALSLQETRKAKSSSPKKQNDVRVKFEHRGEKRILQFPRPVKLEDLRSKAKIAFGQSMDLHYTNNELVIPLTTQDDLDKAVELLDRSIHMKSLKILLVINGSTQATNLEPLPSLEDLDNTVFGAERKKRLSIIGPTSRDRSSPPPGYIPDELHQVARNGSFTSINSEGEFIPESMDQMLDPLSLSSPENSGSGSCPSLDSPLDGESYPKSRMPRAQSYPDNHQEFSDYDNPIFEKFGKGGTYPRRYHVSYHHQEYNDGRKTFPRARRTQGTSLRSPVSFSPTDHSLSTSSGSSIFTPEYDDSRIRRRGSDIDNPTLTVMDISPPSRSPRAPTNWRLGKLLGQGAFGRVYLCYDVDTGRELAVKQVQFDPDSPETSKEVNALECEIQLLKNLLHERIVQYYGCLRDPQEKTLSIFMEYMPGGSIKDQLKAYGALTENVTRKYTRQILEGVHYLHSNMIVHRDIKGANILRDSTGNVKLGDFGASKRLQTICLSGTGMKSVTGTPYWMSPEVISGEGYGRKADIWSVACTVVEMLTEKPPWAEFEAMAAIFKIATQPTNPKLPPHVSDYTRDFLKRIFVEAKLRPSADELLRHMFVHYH
Sequence of PTK2 (human) (Q05397 whole entry, looked up): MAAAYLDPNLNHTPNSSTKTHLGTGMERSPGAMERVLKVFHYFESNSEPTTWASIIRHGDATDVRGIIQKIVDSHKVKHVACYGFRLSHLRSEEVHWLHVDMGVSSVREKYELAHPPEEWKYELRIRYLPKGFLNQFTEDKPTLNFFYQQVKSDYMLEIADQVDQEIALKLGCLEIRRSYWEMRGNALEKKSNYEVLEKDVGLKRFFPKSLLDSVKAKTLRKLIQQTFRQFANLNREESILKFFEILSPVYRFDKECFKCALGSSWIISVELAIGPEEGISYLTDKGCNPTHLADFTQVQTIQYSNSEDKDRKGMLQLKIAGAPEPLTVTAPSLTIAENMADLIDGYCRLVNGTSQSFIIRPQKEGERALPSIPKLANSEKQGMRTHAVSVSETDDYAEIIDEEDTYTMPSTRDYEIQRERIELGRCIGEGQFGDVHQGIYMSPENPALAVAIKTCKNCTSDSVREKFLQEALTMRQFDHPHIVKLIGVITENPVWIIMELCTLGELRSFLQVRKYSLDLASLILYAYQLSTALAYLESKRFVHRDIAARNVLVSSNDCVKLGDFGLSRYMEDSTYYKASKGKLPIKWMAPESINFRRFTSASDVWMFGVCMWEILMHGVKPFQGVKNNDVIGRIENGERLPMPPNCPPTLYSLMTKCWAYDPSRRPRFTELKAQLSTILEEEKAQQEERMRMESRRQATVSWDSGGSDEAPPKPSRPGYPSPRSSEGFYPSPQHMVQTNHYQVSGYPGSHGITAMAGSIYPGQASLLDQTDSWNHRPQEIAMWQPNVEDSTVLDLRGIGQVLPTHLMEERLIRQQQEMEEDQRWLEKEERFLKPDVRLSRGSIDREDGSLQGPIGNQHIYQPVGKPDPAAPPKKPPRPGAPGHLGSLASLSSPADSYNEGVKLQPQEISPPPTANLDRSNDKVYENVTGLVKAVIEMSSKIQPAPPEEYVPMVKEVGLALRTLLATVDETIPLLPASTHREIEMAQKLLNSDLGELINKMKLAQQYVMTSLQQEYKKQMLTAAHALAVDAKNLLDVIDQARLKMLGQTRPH
Sequence of TEC (human) (P42680 whole entry, looked up): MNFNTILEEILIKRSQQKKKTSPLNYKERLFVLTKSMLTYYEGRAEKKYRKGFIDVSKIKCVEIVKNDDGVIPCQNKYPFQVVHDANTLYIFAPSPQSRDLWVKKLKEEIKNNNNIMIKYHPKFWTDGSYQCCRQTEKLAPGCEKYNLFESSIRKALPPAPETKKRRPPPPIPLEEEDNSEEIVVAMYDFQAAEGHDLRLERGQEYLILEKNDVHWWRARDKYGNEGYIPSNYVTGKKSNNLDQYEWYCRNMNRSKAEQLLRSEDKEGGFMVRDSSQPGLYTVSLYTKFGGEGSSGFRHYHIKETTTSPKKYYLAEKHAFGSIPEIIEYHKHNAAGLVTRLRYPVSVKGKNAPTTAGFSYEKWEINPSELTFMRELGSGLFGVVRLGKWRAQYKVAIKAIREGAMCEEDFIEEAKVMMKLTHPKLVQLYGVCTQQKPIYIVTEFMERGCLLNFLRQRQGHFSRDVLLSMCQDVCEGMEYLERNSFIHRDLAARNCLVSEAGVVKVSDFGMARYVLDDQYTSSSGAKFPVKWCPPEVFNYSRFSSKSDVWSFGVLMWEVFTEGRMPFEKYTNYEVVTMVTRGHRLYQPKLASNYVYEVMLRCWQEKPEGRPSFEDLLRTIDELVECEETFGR
Sequence of NEK3 (human) (P51956 whole entry, looked up): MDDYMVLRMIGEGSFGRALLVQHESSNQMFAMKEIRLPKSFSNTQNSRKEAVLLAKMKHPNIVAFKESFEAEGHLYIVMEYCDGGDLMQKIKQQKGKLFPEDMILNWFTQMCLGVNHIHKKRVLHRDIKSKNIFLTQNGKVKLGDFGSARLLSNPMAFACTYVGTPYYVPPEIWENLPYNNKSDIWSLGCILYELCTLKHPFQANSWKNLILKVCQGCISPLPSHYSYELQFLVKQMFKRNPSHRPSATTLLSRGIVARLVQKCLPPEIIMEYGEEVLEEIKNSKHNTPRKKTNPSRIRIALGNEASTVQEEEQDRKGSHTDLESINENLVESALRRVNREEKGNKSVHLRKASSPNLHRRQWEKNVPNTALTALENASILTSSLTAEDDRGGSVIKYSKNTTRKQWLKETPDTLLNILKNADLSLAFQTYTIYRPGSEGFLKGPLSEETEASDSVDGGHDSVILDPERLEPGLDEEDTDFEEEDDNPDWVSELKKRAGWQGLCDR
Sequence of CSF1R (human) (P07333 whole entry, looked up): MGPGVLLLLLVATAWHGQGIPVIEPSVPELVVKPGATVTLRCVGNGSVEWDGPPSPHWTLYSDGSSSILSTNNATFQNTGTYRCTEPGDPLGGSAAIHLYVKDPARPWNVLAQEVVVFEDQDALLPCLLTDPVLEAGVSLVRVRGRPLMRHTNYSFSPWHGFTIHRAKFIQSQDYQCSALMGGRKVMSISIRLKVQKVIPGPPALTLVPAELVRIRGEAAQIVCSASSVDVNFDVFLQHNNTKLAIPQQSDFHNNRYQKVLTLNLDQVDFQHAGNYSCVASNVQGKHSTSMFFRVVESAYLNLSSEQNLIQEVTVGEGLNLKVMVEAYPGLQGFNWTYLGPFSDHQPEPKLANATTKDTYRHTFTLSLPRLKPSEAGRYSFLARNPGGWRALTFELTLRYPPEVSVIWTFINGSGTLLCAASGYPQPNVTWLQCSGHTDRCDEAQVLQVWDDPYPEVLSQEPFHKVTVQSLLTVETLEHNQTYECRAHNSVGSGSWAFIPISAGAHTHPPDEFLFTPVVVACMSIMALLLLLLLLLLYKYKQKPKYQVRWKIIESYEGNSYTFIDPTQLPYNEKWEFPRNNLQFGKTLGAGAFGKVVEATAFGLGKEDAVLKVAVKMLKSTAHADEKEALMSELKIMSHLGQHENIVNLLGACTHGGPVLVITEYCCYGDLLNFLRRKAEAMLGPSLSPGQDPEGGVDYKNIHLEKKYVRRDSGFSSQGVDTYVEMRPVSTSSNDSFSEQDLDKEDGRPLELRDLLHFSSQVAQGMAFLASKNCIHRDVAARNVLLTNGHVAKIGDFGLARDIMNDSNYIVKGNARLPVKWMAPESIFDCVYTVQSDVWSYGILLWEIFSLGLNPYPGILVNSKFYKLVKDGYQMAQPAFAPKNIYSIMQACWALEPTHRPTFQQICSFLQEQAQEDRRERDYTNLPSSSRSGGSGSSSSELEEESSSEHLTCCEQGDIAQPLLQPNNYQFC
Sequence of CSNK1G2 (human) (P78368 whole entry, looked up): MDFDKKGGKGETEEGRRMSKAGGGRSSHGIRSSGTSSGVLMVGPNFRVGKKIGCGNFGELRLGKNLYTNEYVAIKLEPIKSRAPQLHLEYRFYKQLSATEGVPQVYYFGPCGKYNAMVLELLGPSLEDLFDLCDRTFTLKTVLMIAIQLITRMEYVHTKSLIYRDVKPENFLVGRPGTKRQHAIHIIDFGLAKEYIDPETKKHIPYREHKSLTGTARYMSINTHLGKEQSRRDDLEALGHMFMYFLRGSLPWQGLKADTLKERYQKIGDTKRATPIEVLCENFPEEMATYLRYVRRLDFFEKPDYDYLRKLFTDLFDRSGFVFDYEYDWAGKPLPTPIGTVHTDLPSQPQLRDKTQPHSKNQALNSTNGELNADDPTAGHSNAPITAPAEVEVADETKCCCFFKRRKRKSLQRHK

With O=C(CCCc1ccc(-c2ccccc2F)cc1)Nc1ccc(O)cc1 the residual activity (IKBKE (human)) was 98.2%, the residual activity (EPHA8 (human)) was 114% and the residual activity (PNCK (human)) was 102%. The residual activity (CSNK1E (human)) was 99.4%, the residual activity (CSNK1G2 (human)) was 99.4% and the residual activity (MST4 (human)) was 91.5%. It also gave a residual activity (MAP4K5 (human)) of 94.1%, a residual activity (PDGFRA (human)) of 96.5% and a residual activity (CDC42BPA (human)) of 103%. The residual activity (ADRBK2 (human)) was 100%, the residual activity (DYRK3 (human)) was 94.5% and the residual activity (MAP3K8 (human)) was 101%. The residual activity (PRKD1 (human)) was 98.4%, the residual activity (PRKCB1 (human)) was 93.4% and the residual activity (CSF1R (human)) was 104%. It also gave a residual activity (NEK3 (human)) of 109%, a residual activity (EPHB2 (human)) of 98.5% and a residual activity (MUSK (human)) of 93.1%. It also gave a residual activity (PRKCE (human)) of 103%, a residual activity (ULK1 (human)) of 106% and a residual activity (PTK2 (human)) of 102%. For the same molecule, the residual activity (PAK6 (human)) was 108%, the residual activity (INSRR (human)) was 92.7% and the residual activity (PLK1 (human)) was 95.5%. It also gave a residual activity (MYLK2 (human)) of 97.8%, a residual activity (INSR (human)) of 102% and a residual activity (NEK1 (human)) of 100%. It also gave a residual activity (AKT1 (human)) of 97.7%, a residual activity (MAPKAPK3 (human)) of 91% and a residual activity (SGK2 (human)) of 101%. For the same molecule, the residual activity (FLT3 (human)) was 104%, the residual activity (KIT (human)) was 96.3% and the residual activity (EPHA5 (human)) was 99%. For the same molecule, the residual activity (TEC (human)) was 86%, the residual activity (STK25 (human)) was 105% and the residual activity (ROCK2 (human)) was 90.5%. It also gave a residual activity (PRKCB2 (human)) of 102%, a residual activity (FER (human)) of 103% and a residual activity (ROS1 (human)) of 98.4%. For the same molecule, the residual activity (CDK5 CDK5R1 p25 (human)) was 94.6%, the residual activity (MAP3K2 (human)) was 89.1% and the residual activity (GRK5 (human)) was 98.4%.

With O=C(O)/C=C/c1cc(Br)c(Br)c(Br)c1Br the residual activity (IKBKE (human)) was 96.8%, the residual activity (EPHA8 (human)) was 99.1% and the residual activity (PNCK (human)) was 95.1%. For the same molecule, the residual activity (CSNK1E (human)) was 83.6%, the residual activity (CSNK1G2 (human)) was 90.1% and the residual activity (MST4 (human)) was 88.7%. For the same molecule, the residual activity (MAP4K5 (human)) was 80.3%, the residual activity (PDGFRA (human)) was 105% and the residual activity (CDC42BPA (human)) was 98.5%. The residual activity (ADRBK2 (human)) was 94.3%, the residual activity (DYRK3 (human)) was 100% and the residual activity (MAP3K8 (human)) was 83%. For the same molecule, the residual activity (PRKD1 (human)) was 88.9%, the residual activity (PRKCB1 (human)) was 95.5% and the residual activity (CSF1R (human)) was 99%. It also gave a residual activity (NEK3 (human)) of 83.5%, a residual activity (EPHB2 (human)) of 103% and a residual activity (MUSK (human)) of 53.6%. The residual activity (PRKCE (human)) was 88.6%, the residual activity (ULK1 (human)) was 108% and the residual activity (PTK2 (human)) was 94%. The residual activity (PAK6 (human)) was 110%, the residual activity (INSRR (human)) was 88.2% and the residual activity (PLK1 (human)) was 68.7%. It also gave a residual activity (MYLK2 (human)) of 86.8%, a residual activity (INSR (human)) of 98.6% and a residual activity (NEK1 (human)) of 85.4%. The residual activity (AKT1 (human)) was 97.4%, the residual activity (MAPKAPK3 (human)) was 86.3% and the residual activity (SGK2 (human)) was 59.7%. The residual activity (FLT3 (human)) was 79%, the residual activity (KIT (human)) was 89.2% and the residual activity (EPHA5 (human)) was 88.7%. For the same molecule, the residual activity (TEC (human)) was 107%, the residual activity (STK25 (human)) was 87.2% and the residual activity (ROCK2 (human)) was 94.2%. The residual activity (PRKCB2 (human)) was 84.7%, the residual activity (FER (human)) was 96.6% and the residual activity (ROS1 (human)) was 94%. The residual activity (CDK5 CDK5R1 p25 (human)) was 84.1%, the residual activity (MAP3K2 (human)) was 102% and the residual activity (GRK5 (human)) was 104%.

Molecule O=C1NC(=O)/C(=C\c2ccc3nccnc3c2)S1 has a residual activity (IKBKE (human)) of 99.5%, a residual activity (EPHA8 (human)) of 94.2% and a residual activity (PNCK (human)) of 101%. It also gave a residual activity (CSNK1E (human)) of 92.3%, a residual activity (CSNK1G2 (human)) of 83.4% and a residual activity (MST4 (human)) of 91%. It also gave a residual activity (MAP4K5 (human)) of 85.4%, a residual activity (PDGFRA (human)) of 106% and a residual activity (CDC42BPA (human)) of 93.1%. It also gave a residual activity (ADRBK2 (human)) of 111%, a residual activity (DYRK3 (human)) of 71.5% and a residual activity (MAP3K8 (human)) of 99.6%. For the same molecule, the residual activity (PRKD1 (human)) was 94.8%, the residual activity (PRKCB1 (human)) was 96.9% and the residual activity (CSF1R (human)) was 110%. The residual activity (NEK3 (human)) was 97.3%, the residual activity (EPHB2 (human)) was 94.7% and the residual activity (MUSK (human)) was 16.2%. For the same molecule, the residual activity (PRKCE (human)) was 101%, the residual activity (ULK1 (human)) was 100% and the residual activity (PTK2 (human)) was 96.5%. The residual activity (PAK6 (human)) was 107%, the residual activity (INSRR (human)) was 111% and the residual activity (PLK1 (human)) was 100%. It also gave a residual activity (MYLK2 (human)) of 97.2%, a residual activity (INSR (human)) of 108% and a residual activity (NEK1 (human)) of 73.6%. It also gave a residual activity (AKT1 (human)) of 98.3%, a residual activity (MAPKAPK3 (human)) of 104% and a residual activity (SGK2 (human)) of 99.3%. For the same molecule, the residual activity (FLT3 (human)) was 95.2%, the residual activity (KIT (human)) was 87.5% and the residual activity (EPHA5 (human)) was 99.5%. The residual activity (TEC (human)) was 117%, the residual activity (STK25 (human)) was 99.3% and the residual activity (ROCK2 (human)) was 91.3%. The residual activity (PRKCB2 (human)) was 103%, the residual activity (FER (human)) was 96.2% and the residual activity (ROS1 (human)) was 92.3%. It also gave a residual activity (CDK5 CDK5R1 p25 (human)) of 83.2%, a residual activity (MAP3K2 (human)) of 108% and a residual activity (GRK5 (human)) of 105%.

Cn1nc2c3c(cccc31)C(=O)c1ccccc1-2 showed a residual activity (IKBKE (human)) of 92.3%, a residual activity (EPHA8 (human)) of 99.4% and a residual activity (PNCK (human)) of 101%. It also gave a residual activity (CSNK1E (human)) of 34.3%, a residual activity (CSNK1G2 (human)) of 91.5% and a residual activity (MST4 (human)) of 108%. The residual activity (MAP4K5 (human)) was 86%, the residual activity (PDGFRA (human)) was 97.6% and the residual activity (CDC42BPA (human)) was 106%. The residual activity (ADRBK2 (human)) was 93.6%, the residual activity (DYRK3 (human)) was 129% and the residual activity (MAP3K8 (human)) was 94.3%. For the same molecule, the residual activity (PRKD1 (human)) was 69.3%, the residual activity (PRKCB1 (human)) was 94.7% and the residual activity (CSF1R (human)) was 97%. It also gave a residual activity (NEK3 (human)) of 96.7%, a residual activity (EPHB2 (human)) of 104% and a residual activity (MUSK (human)) of 88.4%. The residual activity (PRKCE (human)) was 95.7%, the residual activity (ULK1 (human)) was 101% and the residual activity (PTK2 (human)) was 92.8%. It also gave a residual activity (PAK6 (human)) of 98.6%, a residual activity (INSRR (human)) of 82.7% and a residual activity (PLK1 (human)) of 97%. It also gave a residual activity (MYLK2 (human)) of 78.8%, a residual activity (INSR (human)) of 99.5% and a residual activity (NEK1 (human)) of 78.3%. The residual activity (AKT1 (human)) was 99.1%, the residual activity (MAPKAPK3 (human)) was 104% and the residual activity (SGK2 (human)) was 98.9%. It also gave a residual activity (FLT3 (human)) of 59.3%, a residual activity (KIT (human)) of 86.4% and a residual activity (EPHA5 (human)) of 126%. For the same molecule, the residual activity (TEC (human)) was 102%, the residual activity (STK25 (human)) was 96.5% and the residual activity (ROCK2 (human)) was 92.3%. For the same molecule, the residual activity (PRKCB2 (human)) was 97.8%, the residual activity (FER (human)) was 99.2% and the residual activity (ROS1 (human)) was 104%. The residual activity (CDK5 CDK5R1 p25 (human)) was 92.2%, the residual activity (MAP3K2 (human)) was 103% and the residual activity (GRK5 (human)) was 93.8%.
